Experimental data published in publication PMC5042776 (Molecular Medicine Reports, 2016).
In brackets after ≈: the same amount, converted by molar mass. Like-named read-outs stand apart in the source and are kept apart here. Marks after values point to notes of the source that are not given here.

Columns and labels:
Cytotoxicity assay = format: cell-based, canine; conditions: dog, MDCK cells
[1] = tested on: influenza A/PR/8/34 virus (H1N1 subtype); test: microbe, parasite or virus in culture; format: cell-based; conditions: for SI (H1N1): CC50/IC50; for IC50: Influenza A virus, H1N1|PR/8, MDCK, 72 h, read-out: IC50 (H1N1)
[2] = tested on: A/shenzhen/203/2001 (H3N2 subtype); test: microbe, parasite or virus in culture; format: cell-based, influenza A virus; conditions: for SI (H3N2): CC50/IC50; for IC50: Influenza A virus, H3N2, MDCK, 72 h, read-out: IC50 (H3N2)
[3] = tested on: serum IFN-β, IL-6, TNF-α, IL-1β; format: in vivo, ICR mice; conditions: after 5 days of treatment
influenza A virus (IAV) [4] = format: in vivo, ICR mice
[5] = tested on: Toll-like receptor 7 (TLR7) signaling pathway; format: in vivo, ICR mice
influenza A virus (IAV) [6] = test: IAV-induced acute lung injury in mice; format: in vivo, ICR mice
[7] = 10 mg/kg intragastric once daily 5 days
[8] = 20 mg/kg intragastric once daily 5 days
[9] = 40 mg/kg intragastric once daily 5 days
[10] = 50 mg/kg intragastric once daily 5 days

Compound: C=C1CCC[C@]2(C)C[C@]3(O)OC(=O)C(C)=C3C[C@@H]12 [Atractylenolide III, atractylenolide III]
- CC50 at 3 days (Cytotoxicity assay): 191 µg/mL (≈ 770 µM)
- SI (H1N1) [1]: 7.8
- IC50 [1]: 24.4 µg/mL (≈ 98.3 µM)
- SI (H3N2) [2]: 6.7
- IC50 [2]: 28.6 µg/mL (≈ 115 µM)

Compound: C=C1CCC[C@]2(C)Cc3occ(C)c3C[C@@H]12 [Atractylon, atractylon]
- CC50 at 3 days (Cytotoxicity assay): 261 µg/mL (≈ 1210 µM)
- SI (H1N1) [1]: 29.4
- SI values relative to those of ribavirin ([1]; H1N1 and H3N2): approximately 3 fold
- IC50 [1]: 8.9 µg/mL (≈ 41.1 µM)
- IFN-β (serum) ([3]; 10 mg/kg): 25.8 ± 2.87 pg/mL
- IL-1β (serum) ([3]; 10 mg/kg): 17.2±1.35 ^b pg/ml
- IL-6 (serum) ([3]; 10 mg/kg): 19.5±2.76 ^b pg/ml
- TNF-α (serum) ([3]; 10 mg/kg): 16.2±2.27 ^a pg/ml
- IFN-β (serum) ([3]; 20 mg/kg): 29.4±3.27 ^a pg/ml
- IL-1β (serum) ([3]; 20 mg/kg): 16.5±1.17 ^b pg/ml
- IL-6 (serum) ([3]; 20 mg/kg): 17.4±1.11 ^b pg/ml
- TNF-α (serum) ([3]; 20 mg/kg): 11.8±1.94 ^b pg/ml
- IFN-β (serum) ([3]; 40 mg/kg): 30.8±3.31 ^b pg/ml
- IL-1β (serum) ([3]; 40 mg/kg): 13.4±0.74 ^b pg/ml
- IL-6 (serum) ([3]; 40 mg/kg): 12.8±1.16 ^b pg/ml
- TNF-α (serum) ([3]; 40 mg/kg): 9.20±0.77 ^b pg/ml
- Life prolong rate (influenza A virus (IAV) [4]; [7]): 17.7%
- MDD ± SD (mean day to death) (influenza A virus (IAV) [4]; [7]): 9.3±3.6 ^a day
- Survival rate (influenza A virus (IAV) [4]; [7]): 30.0%
- Survived/total (influenza A virus (IAV) [4]; [7]): 6/20
- Life prolong rate (influenza A virus (IAV) [4]; [8]): 41.8%
- MDD ± SD (mean day to death) (influenza A virus (IAV) [4]; [8]): 11.2±3.3 ^a day
- Survival rate (influenza A virus (IAV) [4]; [8]): 55.0%
- Survived/total (influenza A virus (IAV) [4]; [8]): 11/20
- Life prolong rate (influenza A virus (IAV) [4]; [9]): 57.0%
- MDD ± SD (mean day to death) (influenza A virus (IAV) [4]; [9]): 12.4±2.6 ^a day
- Survival rate (influenza A virus (IAV) [4]; [9]): 70.0%
- Survived/total (influenza A virus (IAV) [4]; [9]): 14/20
- mRNA expressions of TLR7, MyD88, TRAF6 and IFN-β in lung tissue ([5]; compared with model control group, P<0.01): obviously upregulated
- NF-κB p65 protein expression in lung tissue ([5]; mouse, in vivo): downregulated
- SI (H3N2) [2]: 27.8
- IC50 [2]: 9.4 µg/mL (≈ 43.5 µM)
- Inhibitory rate (lung index) (influenza A virus (IAV) [6]; [7]): 27.5%
- Lung index (influenza A virus (IAV) [6]; [7]): 17.43±4.16 ^a mg/g
- Viral load (lung) (influenza A virus (IAV) [6]; [7]): 4.79±0.84 ^b ×10^6 copies
- Inhibitory rate (lung index) (influenza A virus (IAV) [6]; [8]): 58.8%
- Lung index (influenza A virus (IAV) [6]; [8]): 13.08±4.54 ^b mg/g
- Viral load (lung) (influenza A virus (IAV) [6]; [8]): 2.56±0.72 ^b ×10^6 copies
- Inhibitory rate (lung index) (influenza A virus (IAV) [6]; [9]): 74.5%
- Lung index (influenza A virus (IAV) [6]; [9]): 10.90±3.76 ^b mg/g
- Viral load (lung) (influenza A virus (IAV) [6]; [9]): 0.36±0.15 ^b ×10^6 copies
- histological damage of lung (influenza A virus (IAV) [6]; 10–40 mg/kg, H&E staining): improved

Compound: NC(=O)c1ncn([C@@H]2O[C@H](CO)[C@@H](O)[C@H]2O)n1 [Ribavirin, reference compound]
- CC50 at 3 days (Cytotoxicity assay): 116 µg/mL (≈ 476 µM)
- SI (H1N1) [1]: 8.2
- IC50 [1]: 14.2 µg/mL (≈ 58.1 µM)
- IFN-β (serum) ([3]; 50 mg/kg): 23.3 ± 2.79 pg/mL
- IL-1β (serum) ([3]; 50 mg/kg): 21.6 ± 3.36 pg/mL
- IL-6 (serum) ([3]; 50 mg/kg): 18.5±5.99 ^b pg/ml
- TNF-α (serum) ([3]; 50 mg/kg): 13.4±1.54 ^b pg/ml
- Life prolong rate (influenza A virus (IAV) [4]; [10]): 40.5%
- MDD ± SD (mean day to death) (influenza A virus (IAV) [4]; [10]): 11.1±3.1 ^a day
- Survival rate (influenza A virus (IAV) [4]; [10]): 50.0%
- Survived/total (influenza A virus (IAV) [4]; [10]): 10/20
- SI (H3N2) [2]: 10.9
- IC50 [2]: 10.7 µg/mL (≈ 43.8 µM)
- Inhibitory rate (lung index) (influenza A virus (IAV) [6]; [10]): 61.7%
- Lung index (influenza A virus (IAV) [6]; [10]): 12.68±3.30 ^b mg/g
- Viral load (lung) (influenza A virus (IAV) [6]; [10]): 1.38±0.56 ^b ×10^6 copies
